This is an account of results in ChEMBL document CHEMBL4699423, “Photocontrolled activation of small molecule cancer therapeutics” (RSC Med Chem, 2020).

pEC50: −log10 of the molar value.

Series [1] relates to MDA-MB-231. Kind of series: Cytotoxicity against human MDA-MB-231 cells in dark. Format: functional, cell-based.
Series [2] concerns MDA-MB-231. The experiment in a line: Cytotoxicity against human MDA-MB-231 cells. It is filed as functional, cell-based.
A further series relates to HCT-116. Kind of series: Cytotoxicity against human HCT-116 cells. Format: functional. Conditions: read-out: LD50 (the source's name).
In the next series the test system is MDA-MB-468. The experiment in a line: Cytotoxicity against human MDA-MB-468 cells. It is filed as functional. Conditions: read-out: LD50 (the source's name).
The nature of series [3]: Cytotoxicity against human MCF-10A cells. The note with it: read-out: LD50 (the source's name). Format: cell-based.

Broadly, the pEC50 is the negative decadic logarithm of the EC50, by convention in mol/L. Lower therefore signals a large EC50. In the series with MDA-MB-231 [1], `COc1ccc(/N=N/c2cc(OC)c(OC)c(OC)c2)cc1O` had a pEC50 of 4.42.
Compound `COc1ccc(/N=N\c2cc(OC)c(OC)c(OC)c2)cc1O` gave a negative-log EC50 (pEC50) in the series on MDA-MB-231 [2] of 6.30.
As for `CC(C)C[C@H](NC(=O)[C@@H](NC(=O)c1ccc(/N=N\c2ccc(-c3ccccc3)cc2)cc1)[C@@H](C)O)B1OC2C[C@@H]3C[C@H](C2O1)C3(C)C` (stereo partly drawn), the CC50 in the series with HCT-116 was determined as 212 nM; in the series with MDA-MB-468 it was 1030 nM; in series [3], 144 nM.
In the same order, the values of `CC(C)C[C@H](NC(=O)[C@@H](NC(=O)c1ccc(/N=N/c2ccc(-c3ccccc3)cc2)cc1)[C@@H](C)O)B1OC2C[C@@H]3C[C@H](C2O1)C3(C)C` (stereo partly drawn) are 246 nM, 683 nM and > 5000 nM.
